The target in series [1] is T1, recombinant human NFκB p50 (Homo sapiens, UniProt P19838).
T1 construct: recombinant human NFκB p50 (Promega Corp.); purchased Promega Corp
T1 sequence (P19838 1-433 limits assumed): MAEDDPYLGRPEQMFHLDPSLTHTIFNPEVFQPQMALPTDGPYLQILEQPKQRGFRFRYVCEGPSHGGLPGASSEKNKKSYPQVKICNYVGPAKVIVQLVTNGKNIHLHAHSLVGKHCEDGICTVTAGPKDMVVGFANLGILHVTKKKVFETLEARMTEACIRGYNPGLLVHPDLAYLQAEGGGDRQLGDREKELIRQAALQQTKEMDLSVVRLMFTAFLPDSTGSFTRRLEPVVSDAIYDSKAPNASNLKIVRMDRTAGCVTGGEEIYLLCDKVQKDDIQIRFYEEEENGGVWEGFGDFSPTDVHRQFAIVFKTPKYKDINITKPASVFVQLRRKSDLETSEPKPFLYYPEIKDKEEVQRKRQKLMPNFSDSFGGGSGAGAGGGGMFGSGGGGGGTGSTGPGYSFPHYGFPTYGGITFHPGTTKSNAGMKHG
Kind of series: Detection of NF-κB (p50) inhibitory effect of aurothioglucose (Example 5). It is filed as binding. The settings on record: 0 to 5 nmol aurothioglucose, 0.5 pmol NFκB p50, duplexes 31F/42 and 32D/41, 25° C. 30 minutes, relative to absence of aurothioglucose (FIG. 9). The text has this: A synthetic oligonucleotide NFkB-42 and a synthetic oligonucleotide NFkB-31-5F labeled at the 5′ terminus with fluorescein, or a synthetic oligonucleotide NFkB-41 and a synthetic oligonucleotide NFkB-32-3D labeled at the 3′ terminus with DABCYL were mixed to prepare duplexes 31F/42 and 32D/41 having a single-stranded terminus under the same conditions as in Example 1. The duplexes 31F/42 and 32D/41 have an NF-κB binding sequence.
(§1) To a mixed solution of 31F/42 and 05C/08 (50 fmol each), 0 to 5 nmol of aurothioglucose and 0.5 pmol of recombinant human NFκB p50 (Promega Corp.) were added, and further a mixed solution of 32D/41 and 06B/07 (200 fmol each) was added. The resulting solution was mixed and reacted at 25° C. for 30 minutes. […] The fluorescence values of fluorescein and Cy3 were measured using a fluorescence plate reader Ultra (Tecan Group Ltd.). The fluorescein was excited at 485 nm, and its fluorescence was measured at 535 nm. The Cy3 was excited at 535 nm and its fluorescence was measured at 595 nm.

The next series relates to SP1/oligonucleotide. Kind of series: Negative control of the screening system: strand exchange of a nucleic acid set that does not bind to NF-κB (Example 5). The conditions noted are these: 0 to 5 nmol aurothioglucose, duplexes 05C/08 and 06B/07 as negative control, same reaction (FIG. 9).
From the text: A synthetic oligonucleotide SP1-08 and a synthetic oligonucleotide SP1-05-5C3 labeled at the 5′ terminus with Cy3, or a synthetic oligonucleotide SP1-07 and a synthetic oligonucleotide SP1-06-3B1 labeled at the 3′ terminus with BHQ1 were mixed to prepare duplexes 05C/08 and 06B/07 having a single-stranded terminus under the same conditions as in Example 1. The duplexes 05C/08 and 06B/07 have an SP1 binding sequence.
as §1

The next series concerns NF-κB. The conditions noted are these: Yang et al. FEBS letters 1995, 361, 89-96; cited from earlier work.
In another series the target is T2, recombinant human SP1 (Homo sapiens, UniProt P08047).
T2 construct: purchased Promega Corp
Put plainly: Effect of mismatch introduction on suppression of strand exchange, SP1 (Example 4-1). It is filed as binding. The settings on record: 40 fmol SP05C/08B, 2.5 pmol SP1, 80 fmol of the added duplex or single strand, 25° C. 120 minutes (FIG. 7). The text has this: A synthetic oligonucleotide SP1-05-5C3 labeled at the 5′ terminus with Cy3 and a synthetic oligonucleotide SP1-08-3B1 labeled at the 3′ terminus with BHQ1 were mixed to prepare a duplex SP05C/08B having a single-stranded terminus under the same conditions as in Example 1. Moreover, synthetic oligonucleotides SP1-06 and SP1-07, synthetic oligonucleotides SP1-21 and SP1-22, or synthetic oligonucleotides SP1-23 and SP1-24 were mixed to prepare duplexes SP06/07, SP22/21, and SP24/23 having a single-stranded terminus under the same conditions as in Example 1. These duplexes have an SP1 binding sequence.
40 fmol of SP05C/08B and 2.5 pmol of recombinant human SP1 (Promega Corp.) were mixed into a reaction solution (10 mM HEPES-NaOH pH 7.9, 50 mM KCl, 0.1 mM EDTA, 5 mM DTT, 10% glycerol, 0.05% IGEPAL CA-630, 15 μL) and reacted at 25° C. for 30 minutes. 80 fmol of SP06/07, SP22/21, SP24/23, SP1-07, SP1-21, or SP1-23 was added thereto, and […] of the resulting mixture was then reacted at 25° C. for 120 minutes. The fluorescence value of Cy3 was measured using a fluorescence plate reader Ultra (Tecan Group Ltd.).

T2 sequence (P08047 whole entry): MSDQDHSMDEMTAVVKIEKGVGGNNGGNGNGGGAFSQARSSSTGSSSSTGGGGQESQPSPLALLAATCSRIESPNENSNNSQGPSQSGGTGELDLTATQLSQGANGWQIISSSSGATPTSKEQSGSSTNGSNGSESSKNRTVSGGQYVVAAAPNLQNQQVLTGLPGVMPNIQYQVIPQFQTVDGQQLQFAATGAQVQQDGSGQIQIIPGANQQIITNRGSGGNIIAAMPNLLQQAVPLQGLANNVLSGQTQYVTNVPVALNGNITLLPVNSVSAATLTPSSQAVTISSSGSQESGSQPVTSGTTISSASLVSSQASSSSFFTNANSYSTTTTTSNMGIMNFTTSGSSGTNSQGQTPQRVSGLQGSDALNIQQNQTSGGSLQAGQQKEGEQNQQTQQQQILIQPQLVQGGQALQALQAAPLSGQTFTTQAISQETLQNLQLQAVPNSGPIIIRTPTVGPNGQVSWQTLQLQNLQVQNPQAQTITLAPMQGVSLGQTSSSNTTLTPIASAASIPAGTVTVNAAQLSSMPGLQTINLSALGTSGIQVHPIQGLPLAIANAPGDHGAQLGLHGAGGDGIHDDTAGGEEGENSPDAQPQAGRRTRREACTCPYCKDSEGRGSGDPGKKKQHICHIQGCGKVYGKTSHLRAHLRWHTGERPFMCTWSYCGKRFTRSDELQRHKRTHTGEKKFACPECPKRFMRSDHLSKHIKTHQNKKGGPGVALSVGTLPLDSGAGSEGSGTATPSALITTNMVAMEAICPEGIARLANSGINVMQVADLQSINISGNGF

As to `OC[C@H]1O[C@H]([S-])[C@H](O)[C@@H](O)[C@@H]1O.[Au+]` [aurothioglucose, Aurothioglucose], the “relative fluorescence value of the NF-κB/oligonucleotide complex” value in series [1] is reported as “decreased depending on the concentration of aurothioglucose”. For the same molecule, the “relative fluorescence value of the SP1/oligonucleotide” value in the series on SP1/oligonucleotide is “hardly influenced”. Besides, the “inhibition of NF-κB” value in the series with NF-κB is reported as “known to inhibit NF-κB”.

For “SP1-07: synthetic oligonucleotide 5′ ATTCGATCGGGGCGGGGCGACGAGC AGGCTACTCTCTGACCG 3′ (SEQ ID NO: 31) (DNA ATTCGATCGGGGCGGGGCGACGAGCAGGCTACTCTCTGACCG; DNA, backbone and methylation of C not given here)”, in the series with recombinant human SP1, the “effect of addition of SP1 on increase in fluorescence value (Cy3) caused by strand exchange” value is given as “suppressed increase in fluorescence value”.
